We go through 51 molecules from ChEMBL document CHEMBL4043289, “Fragment-Based Drug Discovery of Inhibitors of Phosphopantetheine Adenylyltransferase from Gram-Negative Bacteria” (J Med Chem, 2018).

A short description of series [1]: Inhibition of Escherichia coli C-terminal His-tagged PPAT expressed in Escherichia coli using 4'-phosphopantetheine as substrate preincubated for 5 mins followed by substrate and pyrophosphatase addition measured after 30 mins by malachite green reagent-based colorimetric method.
Series [2] can be described thus: Inhibition of Pseudomonas aeruginosa C-terminal His-tagged PPAT expressed in Escherichia coli using 4'-phosphopantetheine as substrate preincubated for 5 mins followed by substrate and pyrophosphatase addition measured after 30 mins by malachite green reagent-based colorimetric method.
In series [3] the test system is Escherichia coli. Description: Binding affinity to Escherichia coli C-terminal His-tagged PPAT expressed in Escherichia coli assessed as change in melting temperature by SYPRO orange dye-based DSF method. On the technique in general: In DSF a fluorescence change marks the thermal transition of the protein.
Series [4] concerns Escherichia coli. Description: Ratio of IC50 for Escherichia coli C-terminal His-tagged PPAT expressed in Escherichia coli using 10 times 4'-phosphopantetheine as substrate to IC50 for Escherichia coli C-terminal His-tagged PPAT expressed in Escherichia coli using 4'-phosphopantetheine as substrate.
The nature of series [5]: Inhibition of Escherichia coli C-terminal His-tagged PPAT expressed in Escherichia coli using 10 times 4'-phosphopantetheine as substrate preincubated for 5 mins followed by substrate and pyrophosphatase addition measured after 30 mins by malachite green reagent-based colorimetric method.
A short description of series [6]: Dissociation rate constant to Escherichia coli PPAT by SPR method. A general note: Surface plasmon resonance follows binding to a sensor surface in real time, without labels.
Series [7] has as its system Escherichia coli. As to the kind of experiment: (§1) Binding affinity to Escherichia coli PPAT by SPR method.
Series [8] in a line: as §1.
The test system of series [9] is Escherichia coli. As to the kind of experiment: Antibacterial activity against tolC deficient Escherichia coli BW25113 after 20 hrs by broth microdilution method. It counts as functional. The conditions noted are these: for MIC: BW25113, 20 h.
Series [10] deals with Escherichia coli. Description: Antibacterial activity against Escherichia coli ATCC 25922 after 20 hrs by broth microdilution method. In kind it is functional. Background: Dilution methods test growth across graded concentrations, often in twofold steps.
A short description of series [11]: Lipophilicity, log D of the compound at pH 7.4. It counts as physicochemical. The conditions noted are these: buffer.

Structures are written as SMILES. ≈ marks a conversion by molar mass, not a printed value. Calls of active or inactive are those of the source. The rule behind the calls is not given here.

One may read the IC50 as the concentration that inhibits the measured activity by half. Low readings indicate higher potency, high ones lower potency. The term ΔTm denotes the change in melting temperature against a reference sample. A word on the koff: it is the first-order rate constant of dissociation. The Kd is a measure of binding affinity in units of concentration. Higher therefore signals lower affinity. As a reminder, the MIC is the lowest concentration that inhibits growth of the organism. Low values mean inhibition by little substance, high ones a need for much substance. A word on the logD: it is the decadic logarithm of the distribution of all forms, ionised or not, between an organic phase and buffer at a given pH. A low value points to a more hydrophilic compound.

In the case of `O=C(O)c1cccc([C@H]2CCC[C@@H]2c2nc3c(O)cccc3[nH]2)c1` (relative stereo), the IC50 stood at 0.051 µM in series [1] and 25 µM in series [2].
Regarding `Cc1ccc2c(ncn2Cc2ccccc2)n1`, 19 µM corresponded to half-maximal inhibition in [1] (IC50).
On to `Cc1ccc2c(ncn2Cc2cccc(Cl)c2)n1`, for which the IC50 in series [1] amounted to 4.3 µM.
Turning to `CNC(=O)CC(Nc1nc2[nH]c(C)cc(=O)n2n1)c1cccc(Cl)c1` (centres undefined), the IC50 turned out to be 15 µM in series [1] and 10 µM in series [2].
As for `Cc1cc(=O)n2nc(NC(CC(N)=O)c3cccc(Cl)c3)nc2[nH]1` (centres undefined), the IC50 in series [1] was found to be 0.45 µM; in [2] it was 0.83 µM.
On to `Oc1cccc2[nH]c(COc3cccc(Cl)c3)nc12`, for which the IC50 in series [1] is 1.7 µM; in series [2], 14 µM.
Take `O=C(NCCCCCNC(=O)c1ccco1)c1ccco1`: in series [1], the 50% inhibitory concentration (IC50) was found to be 237 µM. Moreover, the ΔTm in series [3] was found to be 2.9 °C.
In the case of `CN1C(=O)C[C@H](c2nc3c(O)cccc3[nH]2)[C@H]1c1ccccc1` (relative stereo), the results for the IC50 in series [1] and in series [2] were 1 µM and 11 µM, respectively.
`Cc1[nH]c2nc(N[C@H](C)c3cccc(Cl)c3)nn2c(=O)c1C`: the IC50 in series [1] came to 1.1 µM; in series [2], 1.7 µM.
Consider `Cc1cc(=O)n2nc(NCc3cccc(Br)c3)nc2[nH]1`, for which the IC50 in series [1] is 5.6 µM.
Regarding `C[C@@H](Nc1ccc2nccnc2n1)c1cccc(Cl)c1`, the IC50 worked out at 348 µM in series [1] and 271 µM in series [2].
As to `Cc1cc(=O)n2nc(N[C@H](C)c3ccccc3)nc2[nH]1`, the IC50 in series [1] worked out at 6.4 µM.
In series [1], `Cc1cc(=O)n2nc(N[C@@H](C)c3ccccc3)nc2[nH]1` registered an IC50 of 120 µM.
Consider `NCc1ccc2ccnc(N)c2c1`, for which the IC50 in series [1] is 1080 µM.
As for `C[C@@H](Nc1ccc2[nH]cnc2n1)c1cccc(Cl)c1`, the results for the IC50 in [1] and in series [2] were 401 µM and over 500 µM, respectively.
Regarding `Cc1[nH]c2nc(NCc3ccccc3F)nn2c(=O)c1C`, the IC50 in series [1] is 31 µM. Moreover, in series [3], the ΔTm was 2.5 °C.
The corresponding values for `COc1ccc2c(c1)C(C)(C)C1CC2CN(C(C)=O)C1` (centres undefined) are 37 µM and 5.1 °C.
`Cc1cc(=O)n2nc(N[C@H](CCO)c3cccc(Cl)c3)nc2[nH]1`: the IC50 in [1] stood at 0.24 µM; in series [2] it was 2 µM; in [5] it was 0.44 µM. Also, the Ratio IC50 in series [4] was determined as 1.8.
As for `COCC[C@@H](Nc1nc2[nH]c(C)cc(=O)n2n1)c1cccc(Cl)c1`, the IC50 in series [1] is 2.4 µM; in series [2], 11 µM.
For `Cc1cc(N)n2nc(N[C@H](C)c3cccc(Cl)c3)nc2n1`, the IC50 is 0.41 µM in series [1] and 0.38 µM in series [2].
Regarding `Cc1nc(N)n2nc(N[C@H](C)c3cccc(Cl)c3)nc2n1`, the IC50 amounted to 5.9 µM in series [1] and 4.6 µM in series [2].
With `Oc1cccc2[nH]c([C@H]3CCC[C@@H]3c3cccc(Cl)c3)nc12` (relative stereo), the IC50 stood at 0.051 µM in series [1] and 1.6 µM in series [2]. The off-rate (koff) in series [6] was 0.0071 s⁻¹. Further, in series [7], the Ka is 1.96 ×10⁵ /M/s. This molecule also gave a Kd in [8] of 0.038 µM.
Turning to `Cc1cc(=O)n2nc(NC(C)c3cccc(Cl)c3)nc2[nH]1` (racemic), the IC50 in series [1] is 0.76 µM; in [2], 1.4 µM; in [5], 3.2 µM. In series [4], the Ratio IC50 is 4.2.
For `Cc1ccc2oc(N[C@H](C)c3cccc(Cl)c3)nc2n1`, the values for the IC50 in series [1] and in [2] were 2.4 µM and 4.9 µM, respectively.
Consider `Cc1ccc2sc(N[C@H](C)c3cccc(Cl)c3)nc2n1`, for which the figures for the IC50 in [1] and in series [2] were 0.41 µM and 2.3 µM, respectively.
Consider `Cc1nc2ccccc2n1Cc1nc2c(O)cccc2[nH]1`, for which the IC50 in series [1] came out at 23 µM; in [2] it was 0.13 µM.
As to `c1ccc(Cn2cnc3ncccc32)cc1`, in [1], the IC50 is 273 µM. Moreover, the ΔTm in series [3] was 2.3 °C.
For the molecule `Cc1cc(=O)n2nc(NCc3cccc(Cl)c3)nc2[nH]1`, the values for the IC50 in [1] and in [5] were 7.6 µM and 43 µM, respectively. Further, the Ratio IC50 in [4] was 5.7.
In the case of `NC1=NC(c2cccc(F)c2)n2c(nc3ccccc32)N1` (centres undefined), the IC50 in series [1] is 69 µM. Besides, in [3], the ΔTm is 3.4 °C.
Take `Cc1ccc2[nH]c(N[C@H](CC#N)c3cccc(Cl)c3)nc2n1`: the MIC in series [9] came out at 4 µg/mL (≈ 12.8 µM). In addition, the IC50 in series [1] amounted to 0.056 µM; in series [2] it was 0.064 µM. In addition, the result in series [10] was inactive. This molecule also showed a logD in series [11] of 3.3. In [6], this molecule showed a koff of 0.013 s⁻¹. For the same molecule, the Ka in series [7] is 13 ×10⁵ /M/s. The molecule also had a Kd in series [8] of 0.01 µM.
As to `CC1(C)OC(=O)c2ccccc2[C@H]1n1cncc1C(F)F`, 163 µM corresponded to half-maximal inhibition in series [1] (IC50). In series [3], the ΔTm was determined as 3.8 °C.
On to `CC(=O)N1CCC[C@H]1c1nc2c(O)cccc2[nH]1`, for which the IC50 was found to be 106 µM in series [1] and 1.9 µM in [2].
In turn, `Oc1cccc2[nH]c(CCc3cccc(Cl)c3)nc12` had an MIC in series [9] of 32 µg/mL (≈ 117 µM). Besides, the half-inhibitory concentration (IC50) in series [1] stood at 0.25 µM; in series [2] it was 4.6 µM.
`CC(C)(CO)[C@@H](O)C(=O)NCCc1nc2c(O)cccc2[nH]1`: the result in [9] and in [10] was inactive. The IC50 was 30 µM in series [1] and 114 µM in [2].
For the molecule `CCc1cc(=O)n2nc(N[C@H](C)c3cccc(Cl)c3)nc2[nH]1`, the IC50 in [1] was 0.9 µM; in [2], 2.8 µM.
The corresponding values for `Cc1cc(=O)n2nc(N[C@H](COC(N)=O)c3cccc(Cl)c3)nc2[nH]1` are 0.25 µM and 3.9 µM.
In the case of `Cc1cc(=O)n2nc(N[C@H](CO)c3cccc(Cl)c3)nc2[nH]1`, the IC50 came to 0.55 µM in series [1] and 0.66 µM in series [2].
As for `Nc1ncnc2ncn(Cc3cccc(Cl)c3)c12`, the IC50 in series [1] was 264 µM. In [3], the ΔTm came to 2.7 °C.
For the molecule `Oc1cccc2[nH]c(C(F)(F)F)nc12`, the IC50 in [1] is 230 µM; in series [2], over 500 µM. In addition, in [3], the shift in melting temperature (ΔTm) is 8.1 °C.
On to `Cc1cc(=O)n2nc(NC(CC(=O)O)c3cccc(Cl)c3)nc2[nH]1` (centres undefined), for which the IC50 in [1] came to 0.2 µM; in series [2] it was 1.1 µM.
`Cc1cc(=O)n2nc(NCc3ccccc3)nc2[nH]1`: it took 77 µM to reach half-maximal inhibition in series [1] (IC50).
In series [1], `COc1ccc2[nH]cc(CCNC(=O)C(C)(C)C)c2c1` came in with an IC50 of 199 µM. For the same molecule, the ΔTm in series [3] was 3.1 °C.
Turning to `OCc1nc2c(O)cccc2[nH]1`, the IC50 in [1] came to 116 µM; in series [2] it was 108 µM.
In the same order, the values of `Oc1cccc2[nH]c(Cc3noc4ccccc34)nc12` are 1 µM and 2.7 µM.
On to `Cc1cc(C)nc(NS(=O)(=O)c2ccc(N)cc2C)n1`, for which inhibition in series [1] was half-maximal at 74 µM (IC50). Further, the ΔTm in series [3] is 8.7 °C.
For `COC(=O)CC(Nc1nc2[nH]c(C)cc(=O)n2n1)c1cccc(Cl)c1` (centres undefined), the IC50 was 2.5 µM in series [1] and 0.49 µM in series [2].
`Oc1cccc2[nH]c(C3CCCN3c3cccc(Cl)c3)nc12` (centres undefined): the IC50 stood at 0.91 µM in series [1] and 34 µM in series [2].
Turning to `Cc1ccn2nc(N[C@H](C)c3cccc(Cl)c3)nc2n1`, the values for the IC50 in series [1] and in [2] were 4.7 µM and 2.6 µM, respectively.
In series [1], `CC(C)(C)Nc1ccc2nnc(C(F)(F)F)n2n1` showed an IC50 of over 2500 µM. For the same molecule, the ΔTm in [3] is 2.5 °C.
For `Cc1ccc2[nH]c(N[C@H](C)c3cccc(Cl)c3)nc2n1`, the IC50 was determined as 0.19 µM in series [1] and 0.61 µM in series [2]. Moreover, the logD in series [11] turned out to be 3.3.
Consider `CN1C(=O)CCC(c2nc3c(O)cccc3[nH]2)C1c1ccccc1` (centres undefined), for which the IC50 came to 0.32 µM in [1] and 25 µM in [2].
